Series [1] is described as follows: Molar enthalpy of transition or fusion. Particulars: Crystal 2; DSC.
The conditions of series [2]: Crystal 2; DTA.

Numbers after ± are expanded uncertainties.

As to `[Cl][Pt][Cl]` [platinous chloride], the “Molar enthalpy of transition or fusion” value in series [1] stood at 0.0399 ± 0.0227 kcal/mol. Besides, the Triple point temperature in series [2] amounted to 660 ± 10 K.
